Assay results as given in patent US5620864A, “Acceptor for fucosyl transferase” (Health Research, Inc., priority 1992, dated 1997).
Values joined by “and” are separate entries in the source; they are usually repeats but may differ in a detail not shown here. Identical values can stand only once.

Key:
[1] = tested on: α1,3-L-fucosyltransferase of the soluble fraction of human ovarian tumor; experiment: Assay of α1,3-fucosyltransferase with synthetic acceptors, partially purified enzyme of ovarian tumor soluble fraction; assay type: biochemical; settings: for [14C] Fucose Incorporated (CPM): acceptor 3.0 mM, 37° C. 18 h
Description: (§1) An incubation mixture contained 50 mM HEPES-NaOH, pH 7.5, 5 mM MnC12, 7 mM ATP, 3 mM NaN3, the acceptor 0.3 mM (for serum enzyme) or 3.0 mM (for tumor enzyme), 0.125 μCi of GDP-[U-^14 C] Fuc (Sp. Act. 216 mCi/mmol) and enzyme in a total volume of 0.10 ml; the control incubation mixture had everything except the acceptor. At the end of incubation at 37° C. for 18 h, the mixture was diluted with 1 ml water and passed through Dowex-1-C1 column (1 ml in a Pasteur pipet). The column was washed twice with 1 ml water; the breakthrough and wash, which contained the [^14 C] fucosylated neutral acceptor, were collected together in a scintillation vial and counted for radioactivity using the scintillation coctail 3a70 (Research Products International, Mount Prospects, Ill.) and Beckman LS9000. The Dowex column was then eluted successively with 3 ml each of 0.1M and 0.2M NaCl; these eluates which contained the [^14 C] fucosylated sulfated acceptors, were counted for radioactivity as before. Corrections were made by subtracting the radioactivity in the water and NaCl eluates of the control incubation mixture from the corresponding test fractions. The duplicate runs of samples gave almost identical values, the difference being <5%.
As shown in the scheme set forth in FIG. 2, the α-L-fucosidase-free extract of the tissue (40 g), after concentration by 80% (NH4)2 SO4 precipitation was fractionated on bovine IgG glycopep-Sepharose in batches of 25 ml. After washing the column with the equilibration buffer, the bound enzyme was eluted with 1 M NaCl in the same buffer. The protein positive fractions were pooled and processed as shown in the scheme 2.0 ml of the above preparation was loaded on a Sephacryl S-200 column (Superfine:2.6 cm×88.0 cm) equilibrated at 4° C. with 50 mM Tris-HC1, pH 7.0 containing 0.15M NaCl and 0.1% Triton X-100 and eluted with the same buffer. Fractions of 3.0 ml were collected. The fucosyltransferase activity was located in the effluent fractions, by assaying first every 5th fraction and then obtaining the activity profile by assaying the alternate fractions in that range, using 2'-fucosyl LacNAc as the acceptor. […] Its elution position, which is slightly later than BSA, run separately on the same column, indicates its molecular weight as <67,000 daltons. […] The enzyme has been purified 66 fold over the soluble extract with a recovery of 6.2%. The enzyme at this stage lost its activity either kept frozen at -20° C. or left at 4° C. for more than a week. However, the enzyme at the end of the previous step was fairly stable for at least two months at 4° C. So this preparation of enzyme was used in acceptor ability comparison studies.
When α1,3-fucosyltransferase activity of the partially purified enzyme preparation from the soluble portion of ovarian tumor was measured and compared with the activity of other acceptors, the following results were obtained. 2'-methyl LacNAc, LacNAc and Galβ1, 3GlcNAc were respectively 100.0%, 60.6% and 565.5% active, indicating the presence of both α1,3 and α1,4 fucosyltransferase activities in this preparation.

[2] = tested on: α1,3-L-fucosyltransferase of the particulate fraction of ovarian tumor; experiment: Assay of α1,3-fucosyltransferase with synthetic acceptors, ovarian tumor particulate fraction; assay type: biochemical, human; settings: for Relative Percent: 2'-methyl LacNAc = 100; for [14C] Fucose Incorporated (CPM): acceptor 3.0 mM, 37° C. 18 h
Description: FIG. 2 The scheme for the preparation of the particulate and soluble fractions of human ovarian tumor.
as §1
This finding is quite different from what we found with the soluble fraction, where α1,4-fucosyltransferase activity seems to be greater than α1,3-fucosyltransferase activity. […] The different nature of the above enzymes was made further clear, when sulfated derivatives of LacNAc was tested as acceptors.

[3] = molecular target: T1, serum α1,3-L-fucosyltransferase (Homo sapiens, UniProt P51993); experiment: Assay of α1,3-fucosyltransferase with various synthetic acceptors, ovarian cancer sera as enzyme source; assay type: biochemical; settings: for [14C] Fucose Incorporated (CPM): acceptor 0.3 mM, 37° C. 18 h
T1 construct: Sera were collected from healthy females and ovarian cancer patients; from tissue; host or cells: blood serum of ovarian cancer patients and healthy females
T1 sequence (P51993 35-359 limits assumed): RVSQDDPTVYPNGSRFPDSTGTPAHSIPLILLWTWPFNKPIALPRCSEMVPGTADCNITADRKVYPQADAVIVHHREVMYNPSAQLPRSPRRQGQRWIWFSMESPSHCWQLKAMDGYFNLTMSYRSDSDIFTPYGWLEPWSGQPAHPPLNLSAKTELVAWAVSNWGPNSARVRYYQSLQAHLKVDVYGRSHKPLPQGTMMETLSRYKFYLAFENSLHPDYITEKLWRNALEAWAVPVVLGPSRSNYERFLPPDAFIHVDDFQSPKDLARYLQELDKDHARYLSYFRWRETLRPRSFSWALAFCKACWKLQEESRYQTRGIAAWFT
Description: Sera were collected from healthy females and ovarian cancer patients admitted to Roswell Park Cancer Institute in Buffalo, N.Y., USA. Ovarian tumor tissues were obtained during surgical procedures from patients with ovarian cancer. Both sera and tissues were stored frozen at -70° C. until use.
as §1
The activity of serum α1,3-fucosyltransferase was measured with the specific substrate 2'-methyl LacNAc and compared with the ability of several other synthetic substrates to act as an acceptor of fucose.
When the structure of the acceptor 2'-methyl LacNAc was modified by replacing the methyl group with sulfate group in C-2', 3', 6' or 6 position and tested their ability to act as the acceptor of fucose, the following novel findings emerged. […] The β-benzyl glycoside of 3' sulfo LacNAc was quite active (168.4%) but less than the parent compound.

| SMILES | Relative Percent ([1]; 2'-methyl LacNAc = 100) [%] | Relative Percent ([1]; 2'-methyl LacNAc = 100, listed as 3-sulfo Galβ1,3GlcNAcβ-O-Bn) [%] | Relative Percent ([1]; 2'-methyl LacNAc = 100, listed as β-benzyl glycoside of 3-sulfoGalβ1, 3 GlcNAc) [%] | [14C] Fucose Incorporated (CPM) [1] [CPM] | Relative Percent [2] [%] | [14C] Fucose Incorporated (CPM) [2] [CPM] | Relative Percent ([3]; 2'-methyl LacNAc = 100) [%] | Relative Percent ([3]; 2'-methyl LacNAc = 100, listed as 3-Sulfo Galβ1, 3GlcNAcβ-O-Bn) | [14C] Fucose Incorporated (CPM) [3] [CPM] | Relative Percent ([1]; 2'-methyl LacNAc = 100, listed as 6' sulfo LacNAc) [%] | Relative Percent ([1]; 2'-methyl LacNAc = 100, listed as 6-'-sulfo LacNAc) [%] | Relative Percent ([1]; 2'-methyl LacNAc = 100, listed as 6-sulfo LacNAc) | Relative Percent ([1]; 2'-methyl LacNAc = 100, listed as Galβ1, 3 GlcNAc) [%] | Relative Percent ([1]; 2'-methyl LacNAc = 100, listed as Galβ1, 3GlcNAc) [%] | Relative Percent ([1]; 2'-methyl LacNAc = 100, listed as β-benzyl glycoside of Galβ1, 3 Glc NAc) [%] | Relative Percent ([1]; 2'-methyl LacNAc = 100, listed as β-benzyl glycoside of Galβ1,3GlcNAc) [%] |
| --- | --- | --- | --- | --- | --- | --- | --- | --- | --- | --- | --- | --- | --- | --- | --- | --- |
| CC(=O)N[C@H]1[C@H](OCc2ccccc2)O[C@H](CO)[C@@H](O)[C@@H]1O[C@@H]1O[C@H](CO)[C@H](O)[C@H](OS(=O)(=O)O)[C@H]1O [3-SulfoGa1β1,3G1cNAcβ-O--Bn, Benzyl 3-0-(sodium β-D-Galactopyranosy 3-Sulfate)-2-acetamido-2-deoxy-β-D-Glucopyranoside] | 415.4 | 415.4 | 415 | 30704 | 2.9 | 1382 | 0 | did not show any activity | 0 | – | – | – | – | – | – | – |
| CC(=O)N[C@H]1[C@H](OCc2ccccc2)O[C@H](CO)[C@@H](O)[C@@H]1O[C@@H]1O[C@H](CO)[C@H](O)[C@H](O)[C@H]1O [Ga1β1,3G1cNAcβ-O--Bn] | 1004.5 | – | – | 74260 | 37.8 | 18221 | 21.7 | – | 376 | – | – | – | – | – | 1005 | 1004.5 |
| CC(=O)N[C@H]1[C@H](O[C@H]2[C@@H](O)[C@@H](CO)O[C@@H](Oc3ccc([N+](=O)[O-])cc3)[C@@H]2O)O[C@H](CO)[C@@H](O[C@@H]2O[C@H](CO)[C@H](O)[C@H](O)[C@H]2O)[C@@H]1O [LacNAcβ1,3Ga1β-O--PNP] | 87.0 | – | – | 6432 | 70.0 | 33759 | 166.8 | – | 2886 | – | – | – | – | – | – | – |
| CC(=O)N[C@H]1[C@H](OCc2ccccc2)O[C@H](CO)[C@@H](O[C@@H]2O[C@H](CO)[C@H](O)[C@H](O)[C@H]2O)[C@@H]1O [LacNAcβ-O--Bn] | 111.6 | – | – | 8249 | 132.9 | 64223 | 358.8 | – | 6207 | – | – | – | – | – | – | – |

Now from value to compound:

| Relative Percent ([1]; 2'-methyl LacNAc = 100) [%] | Relative Percent ([1]; 2'-methyl LacNAc = 100, listed as 3-sulfo Galβ1,3GlcNAcβ-O-Bn) [%] | Relative Percent ([1]; 2'-methyl LacNAc = 100, listed as β-benzyl glycoside of 3-sulfoGalβ1, 3 GlcNAc) [%] | [14C] Fucose Incorporated (CPM) [1] [CPM] | Relative Percent [2] [%] | [14C] Fucose Incorporated (CPM) [2] [CPM] | Relative Percent ([3]; 2'-methyl LacNAc = 100) [%] | Relative Percent ([3]; 2'-methyl LacNAc = 100, listed as 3-Sulfo Galβ1, 3GlcNAcβ-O-Bn) | [14C] Fucose Incorporated (CPM) [3] [CPM] | Relative Percent ([1]; 2'-methyl LacNAc = 100, listed as 6' sulfo LacNAc) [%] | Relative Percent ([1]; 2'-methyl LacNAc = 100, listed as 6-'-sulfo LacNAc) [%] | Relative Percent ([1]; 2'-methyl LacNAc = 100, listed as 6-sulfo LacNAc) | Relative Percent ([1]; 2'-methyl LacNAc = 100, listed as Galβ1, 3 GlcNAc) [%] | Relative Percent ([1]; 2'-methyl LacNAc = 100, listed as Galβ1, 3GlcNAc) [%] | Relative Percent ([1]; 2'-methyl LacNAc = 100, listed as β-benzyl glycoside of Galβ1, 3 Glc NAc) [%] | Relative Percent ([1]; 2'-methyl LacNAc = 100, listed as β-benzyl glycoside of Galβ1,3GlcNAc) [%] | SMILES |
| --- | --- | --- | --- | --- | --- | --- | --- | --- | --- | --- | --- | --- | --- | --- | --- | --- |
| 5.3 | – | – | 395 | 42.6 | 20543 | 36.2 | – | 626 | 5 | 5.3 | – | – | – | – | – | CC(=O)N[C@H]1C(O)O[C@H](CO)[C@@H](O[C@@H]2O[C@H](COS(=O)(=O)O)[C@H](O)[C@H](O)[C@H]2O)[C@@H]1O (stereo partly shown) [6'-Sulfo LacNAc] |
| 272.6 | – | – | 20148 | 53.3 | 25740 | 172.4 | – | 2983 | – | – | 272% and 272.6% | – | – | – | – | CC(=O)N[C@H]1C(O)O[C@H](COS(=O)(=O)O)[C@@H](O[C@@H]2O[C@H](CO)[C@H](O)[C@H](O)[C@H]2O)[C@@H]1O (stereo partly drawn) [6-Sulfo LacNAc, β-D-GALACTOPYRANOSYL-(1→4)-SODIUM 2-ACETAMIDO-2-DEOXY-D-GLUCOPYRANOSE 6-SULFATE] |
| 565.5 | – | – | 41802 | 34.2 | 16511 | 13.1 | – | 227 | – | – | – | 566 | 565.5 | – | – | CC(=O)N[C@H]1C(O)O[C@H](CO)[C@@H](O)[C@@H]1O[C@@H]1O[C@H](CO)[C@H](O)[C@H](O)[C@H]1O (stereo partly drawn) [Ga1β1,3G1cNAc] |
| 60.6 | – | – | 4480 | 61.8 | 29842 | 93.4 | – | 1615 | – | – | – | – | – | – | – | CC(=O)N[C@H]1C(O)O[C@H](CO)[C@@H](O[C@@H]2O[C@H](CO)[C@H](O)[C@H](O)[C@H]2O)[C@@H]1O (stereo partly shown) [LacNAc] |
